For series [1], the system named is PC12 cells. The series can be described thus: Microinjection success rate (Lucifer Yellow injection) using photosensitized membrane destruction. The format is cell-based, rat. Particulars: BAT-containing injection liquid, no light applied, capillary kept in contact with cell, n=30. The protocol: To determine whether the microinjection process was successful, the water-soluble fluorescent pigment Lucifer Yellow CH (LY)was added to an injection liquid. […] Evaluation was made to determine how the success rate of injection of the LY into the cell varied depending on the presence of the photosesirizer BAT in the injection liquid or the presence of application of the BAT exciting light.
To make the microinjection successful, a glass capillary having a diameter of several hundred nanometers at a tip opening thereof must be brought into contact with the cell at a high speed to physically instantaneously penetrate and punch the cell membrane. In the experiments, an electric micromanipulator (manufactured by Eppendorf; Micromanipulator 5171) and an electric injector (manufactured by Eppendorf; Transjector 5246), which can both operate under the control of a program, could be used to set a speed at which the capillary contacted with the membrane, at an arbitrary value. In addition, the injection capillary was a commercially available product (manufactured by Eppendorf; FemtoTips) mass-produced for the above apparatuses. […]

A further series in a line: Water solubility. The series is classed as physicochemical. From the text: A thiophen oligomer having an aminomethyl group at a terminal thereof has a higher water solubility than any other derivative of the same kind due to this terminal aminomethyl group. The water solubility varies depending on how the aminomethyl group is released. […] By irrigating the cell with the BAT-dispersed solution under the above pH condition, this molecule can be easily added to a surface of the cell. The hydrophilic property of the BAT molecule is new and is absent from the other modified thiophen oligomers including an a terthienyl derivative as well as other molecules designed as conductive high-molecular monomers.

The test system of series [2] is PC12 cells. The series can be described thus: Cell survival rate after injection process (LY retaining rate). The format is cell-based, rat. Here is the method: A cell survival rate after the injection process was compared between cells subjected to the normal microinjection process using the physical shearing force and cells subjected to the photosensitizing microinjection.
The LY was injected into the cell by means of microinjection. In a dead cell with its cell membrane collapsed, the LY disperses quickly to lose its color [Cell, 14, 741-759 (1987)]. Thus, using a rate at which the cell subjected to the injection process holds the LY, as an index indicating the cell survival rate, the survival rates 3 and 6 days after the injection process were compared to each other.
In FIG. 13, the axis of abscissa indicates the number of days passing after the injection process (unit: day), while the axis of ordinate indicates the survival rate (units %).

Series [3] deals with PC12 cells. Put plainly: Membrane resistance and membrane potential after light irradiation (patch clamp). The series is classed as cell-based, rat. Here is the method: Since minute membrane defects must be monitored at a cell level for a period of time in the order of seconds to several minutes including a recovery process, the patch clamp method, which is used for electrophysiological experiments, was used to measure the potential between the cell membranes or ion current transmitted through the cell membrane.
The photosensitizer BAT was dispersed in a HEPES (25 mM, pH 7.4) buffer.
The cells were incubated in a culture medium for electrophysiological experiments at roam temperature. The culture medium used for this experiment was composed of 124 mM of NaCl, 5 mM of KCl, 2.4 mM of CaCl2.2H2O, 1.3 mM of MgSO4.7H2O, and 10 mM of glucose, with a final pH adjusted to 7.4 by addition of NaOH. To prevent the averse effects of evaporation, the culture medium for electrophysiological experiments was replaced with a new at the intervals of 40 minutes at maximum.
The BAT was added so as to have a final Concentration of 49 μM. The quantity of light applied was set at three levels: 0.47 J/cm^2, 0.94 J/cm^2, and 1.57 J/cm^2.
A liquid in the patch electrode was composed of 132 mM of KCl, 8 mM of NaCl, 2 mM of MgCl2, 30 mM of HEPES, 4 mM of Na2ATP, 0.3 mM of GTP, and 0.5 mM of EGTA, with a final pH adjusted to 7.3 by addition of NaOH.
Since a zoom function allows light to be concentrated in an area smaller than a normal area, the amount of light per unit area increases in proportion to the square of a zoom magnification. The excitation light is transmitted through the plastic of the collagen coat dish before actually reaching the cell, so that a decrease in light quantity must actually be taken into consideration.
In irradiating the cell with the excitation light, a TTL signal operating in connection with an electrophysiological record is transmitted to the light source as required to synchronize the light irradiation with electric measurements.
Before starting the electrophysiological experiments, the cell membrane potential had been maintained between −80 and −60 mV.
The cell membrane potential measuring amplifier was Axpopatch 1-D (Axon Instruments). The membrane resistance was calculated from a change in membrane potential occurring when a 1-Hz rectangular-wave overpolarization current flowed through the membrane for 350 milliseconds. The amount of, current supplied (0.1 or 0.15 nA) was selected so that the change in membrane potential would not exceed 30 mV when power was supplied. Under these experimental conditions, the PC12 cell generated no action potential. Measured potential and current values were analyzed using Axoscope ver. 1.1 (manufactured by Axon Instruments).
In FIG. 9, the axis of abscissa indicates an elapsed time (unit: second). The axis of ordinate indicates the resistance of the cell membrane (unit: %) in the upper part and the potential thereof in the lower part, both values being normalized by setting corresponding values prior to irradiation equal to […]. The membrane resistance reflects the ion transmission inhibiting capability, and the membrane potential reflects the active ion transporting capability of the membrane effected by activities of various intermembrane ion transporting systems as well as the ion transmission inhibiting capability.
A microinjection device was connected to a minute glass pipette held in a micromanipulator, and the minute glass pipette was filled with a solution with the photosensitizer BAT dispersed therein (BAT concentration: 2 mM, water solvent). The glass pipette was located in such a manner that its tip was connected to the patch electrode and located within 200 μm from a cell for which the membrane potential and resistance were to be measured.

[4] abbreviates: B: 4.94 J/cm^2 light, BAT 49 μM, several seconds after irradiation.

`Cl.Cl.NCc1ccc(-c2ccc(-c3ccc(CN)s3)s2)s1` [BAT, 5′5″-bis(aminomethyl)-2,2′:5′2″-terthiophene dihydrochloride]: the injection success rate in the series with PC12 cells [1] is 13%. Further, the water solubility entry in the series “Water solubility” (acid water solution (bivalent positive charge)) is “easily soluble”; in the series “Water solubility” (water solution with biologically suitable pH range (near 7.4), univalent positive charge type), “maintains a high water solubility”. For the same molecule, the “cell survival rate (LY retention)” value with PC12 cells [2] (photosensitizing injection (BAT + light), three to six days after injection) is given as “about 90%”. Moreover, the “cell membrane resistance and membrane potential after light irradiation” value with PC12 cells [3] (A: 0.47 J/cm^2 light, BAT 49 μM, 363-nm argon ion laser) is recorded as “varied slightly but not significantly”; in the series with PC12 cells [3] (C: 1.57 J/cm^2 light, BAT 49 μM, then remained at fixed values (irreversible)), “lost”. For the same molecule, the “cell membrane resistance after light irradiation” value with PC12 cells [3] (setting [4]) is “decreased”. For the same molecule, the “membrane potential after light irradiation” value in the series with PC12 cells [3] (setting [4]) was “depolarized”. Moreover, in the series with PC12 cells [3] (BAT 2 mM dispersed solution ejected from minute glass pipette onto target cell, laser as in Example 3), the “cell membrane potential after laser beam” value was “depolarized”. Besides, the “time after light irradiation to loss of membrane resistance and potential” value in the series with PC12 cells [3] (C: 1.57 J/cm^2 light, BAT 49 μM) is “about 8 seconds”.

For the molecule `NNC(=O)NN1C(=O)c2cc(S(=O)(=O)O)cc3c(N)c(S(=O)(=O)O)cc(c23)C1=O` [LY, Lucifer Yellow CH, reference compound], the survival rate with PC12 cells [2] (control examples: normal injection, 3 days after the injection) is 17%.

For the origin of these results see patent US6537800B1, “Apparatus for automatically measuring minute membrane potential” (Center for Advanced Science and Technology Incubation, Ltd., priority 1998, dated 2003).
